Test results published in paper PMC2248166, “Quantitative peptide binding motifs for 19 human and mouse MHC class I molecules derived using positional scanning combinatorial peptide libraries” (Immunome Research, 2008).

Columns and labels:
Type in all cases: binding
HLA A*3001 = HLA A*3001 (Homo sapiens, UniProt P04439, D140H/D185E/E176W/F33S/G80R/H175R/K168Q/R138E/R41S); test: biochemical
HLA A*3201 = HLA A*3201 (Homo sapiens, UniProt P04439, A270S/D101S/D185E/E176V/E277Q/F133L/G103R/G107R/G231S/H175R/I121M/I218V/I322F/K168Q/L105A/L300P/L318F/M331R/P208A/P217A/Q94H/R106L/R138Q/S129P/T104I/T323A/T345S/V100E/V321M/V358M); test: biochemical
HLA A*6802 = HLA A*6802 (Homo sapiens, UniProt P04439, A269V/D140Y/D185E/E176V/E277Q/E87N/F33Y/G231S/I121R/I166T/I218V/L180W/L300P/L318F/N151K/P208A/P217A/Q86R/R138H/R169H/S129P/T345S/V36M)
HLA B*0801 = HLA B*0801 (Homo sapiens, UniProt P01889, A93T/A95T/D138N/E176V/E187T/K202T/Q94N/R180D/S35A/V36M/Y33D/Y91F); test: biochemical
HLA B*1501 = HLA B*1501 (Homo sapiens, UniProt P01889, A329T/A93T/A95T/C349S/D201E/D98Y/E187L/E204Q/E69M/E70A/K202T/N87E/Q94N/R155S/R180W/S121R/S35A/S48A/V306I/V36M/Y140S/Y91S); test: biochemical
HLA B*1503 = HLA B*1503 (Homo sapiens, UniProt P01889, A329T/A93T/A95T/C349S/D201E/D98Y/E187L/E204Q/K202T/N87E/Q94N/R155S/R180L/S121R/S35A/V306I/V36M/Y140S/Y91S); test: biochemical
HLA B*3501 = HLA B*3501 (Homo sapiens, UniProt P01889, A329T/A93T/A95T/C349S/D201E/D98Y/E176V/E187L/E204Q/E69T/I218V/K202T/L119I/Q94N/R155S/R180L/S121R/S35A/S48A/T118I/V127L/V306I/V36M/Y140S/Y91F)
HLA B*5101 = HLA B*5101 (Homo sapiens, UniProt P01889, A329T/A93T/A95T/C349S/D138N/D201E/D98Y/E187L/E204Q/E69T/G107R/I218V/K202T/L105A/L119W/N104I/Q94N/R106L/R155S/R180L/S101N/S121T/S35A/S48A/V306I/V36M/Y195H/Y91F)
HLA B*5301 = HLA B*5301 (Homo sapiens, UniProt P01889, A329T/A93T/A95T/C349S/D201E/D98Y/E176V/E187L/E204Q/E69T/G107R/I218V/K202T/L105A/L119I/N104I/Q94N/R106L/R155S/R180L/S101N/S121R/S35A/S48A/T118I/V127L/V306I/V36M/Y140S/Y91F)
HLA B*5401 = HLA B*5401 (Homo sapiens, UniProt P01889, A329T/C349S/D138N/D201E/E176V/E187T/E204Q/E69G/I76V/K202T/L119W/R155S/R180L/S121T/S35A/S48A/V127L/V306I/V36M/Y140L)
HLA B*5801 = HLA B*5801 (Homo sapiens, UniProt P01889, A329T/C349S/D201E/D98Y/E176V/E187L/E204Q/E69T/G107R/I218V/I90N/K202T/L105A/L119I/N104I/N87E/Q89R/Q94S/R106L/R155S/R180L/R86G/S101N/S121R/S35A/S48A/T118I/V127L/V306I/V36M/Y140S/Y91M)
HLA B*5802 = HLA B*5802 (Homo sapiens, UniProt P01889, A329T/C349S/D201E/D98Y/E176V/E187L/E204Q/E69T/G107R/I218V/I90N/K202T/L105A/N104I/N87E/Q89R/Q94S/R106L/R155S/R180L/R86G/S101N/S121W/S35A/S48A/V127L/V306I/V36M/Y140S/Y91M)
H-2 D^b = H-2 D^b (Mus musculus, UniProt P01899)
H-2 D^b, sequence (P01887 21-119): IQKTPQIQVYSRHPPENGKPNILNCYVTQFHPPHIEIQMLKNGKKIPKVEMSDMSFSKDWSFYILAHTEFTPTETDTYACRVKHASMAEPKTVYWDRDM
H-2 D^b, sequence (P01899 25-362): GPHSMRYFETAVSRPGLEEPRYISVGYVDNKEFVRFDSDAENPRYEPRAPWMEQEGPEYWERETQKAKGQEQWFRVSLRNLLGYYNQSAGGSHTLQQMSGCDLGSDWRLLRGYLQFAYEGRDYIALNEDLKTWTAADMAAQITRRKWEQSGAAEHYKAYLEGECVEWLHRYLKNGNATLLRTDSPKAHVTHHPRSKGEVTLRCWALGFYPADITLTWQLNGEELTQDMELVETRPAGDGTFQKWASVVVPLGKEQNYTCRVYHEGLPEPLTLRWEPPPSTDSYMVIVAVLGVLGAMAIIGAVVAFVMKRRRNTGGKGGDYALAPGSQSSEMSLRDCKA

H-2 D^d = H-2 D^d (Mus musculus, UniProt P01900)
H-2 D^d, sequence (P01900 whole entry, looked up): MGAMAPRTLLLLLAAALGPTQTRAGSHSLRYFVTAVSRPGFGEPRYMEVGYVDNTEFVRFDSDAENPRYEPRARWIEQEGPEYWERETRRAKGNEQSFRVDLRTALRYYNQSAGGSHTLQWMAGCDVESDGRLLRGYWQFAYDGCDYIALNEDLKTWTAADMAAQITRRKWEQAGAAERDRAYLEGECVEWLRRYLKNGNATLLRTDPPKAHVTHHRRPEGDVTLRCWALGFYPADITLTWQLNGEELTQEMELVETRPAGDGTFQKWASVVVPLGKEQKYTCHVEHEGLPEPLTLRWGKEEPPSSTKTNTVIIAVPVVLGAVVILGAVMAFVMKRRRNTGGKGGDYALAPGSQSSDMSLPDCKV

H-2 K^d = H-2 K^d (Mus musculus, UniProt P01902)
H-2 K^d, sequence (P01887 21-119): as the sequence (P01887 21-119) above
H-2 K^d, sequence (P01902 22-368): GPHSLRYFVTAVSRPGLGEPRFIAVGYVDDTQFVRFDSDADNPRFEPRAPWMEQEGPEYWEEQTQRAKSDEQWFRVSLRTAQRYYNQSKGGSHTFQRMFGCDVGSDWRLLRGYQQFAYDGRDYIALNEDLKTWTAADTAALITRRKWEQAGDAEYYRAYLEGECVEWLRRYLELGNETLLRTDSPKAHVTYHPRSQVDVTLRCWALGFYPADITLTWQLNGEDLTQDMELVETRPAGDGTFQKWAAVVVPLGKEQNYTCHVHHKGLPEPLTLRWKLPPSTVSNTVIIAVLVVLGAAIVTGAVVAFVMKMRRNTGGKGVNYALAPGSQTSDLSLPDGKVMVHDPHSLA

H-2 K^k = H-2 K^k (Mus musculus, UniProt P04223)
H-2 K^k, sequence (P01887 21-119): as the sequence (P01887 21-119) above
H-2 K^k, sequence (P04223 22-369): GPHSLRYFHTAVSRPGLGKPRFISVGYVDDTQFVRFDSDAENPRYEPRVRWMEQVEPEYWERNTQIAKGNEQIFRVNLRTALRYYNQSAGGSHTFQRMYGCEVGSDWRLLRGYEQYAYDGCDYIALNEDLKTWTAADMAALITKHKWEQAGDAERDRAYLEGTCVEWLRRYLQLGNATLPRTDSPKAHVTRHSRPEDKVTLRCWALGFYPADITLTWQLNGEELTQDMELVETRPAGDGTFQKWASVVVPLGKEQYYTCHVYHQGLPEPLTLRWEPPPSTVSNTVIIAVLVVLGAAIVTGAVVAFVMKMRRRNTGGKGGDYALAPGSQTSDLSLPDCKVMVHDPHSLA

Row | Sequence | Normalized average relative binding affinity(ARB) (HLA A*3001) | Normalized average relative binding affinity(ARB) (HLA A*3201) | Normalized average relative binding affinity(ARB) (HLA A*6802) | Normalized average relative binding affinity(ARB) (HLA B*0801) | Normalized average relative binding affinity(ARB) (HLA B*1501) | Normalized average relative binding affinity(ARB) (HLA B*1503) | Normalized average relative binding affinity(ARB) (HLA B*3501) | Normalized average relative binding affinity(ARB) (HLA B*5101) | Normalized average relative binding affinity(ARB) (HLA B*5301) | Normalized average relative binding affinity(ARB) (HLA B*5401) | Normalized average relative binding affinity(ARB) (HLA B*5801) | Normalized average relative binding affinity(ARB) (HLA B*5802) | Normalized average relative binding affinity(ARB) (H-2 D^b) | Normalized average relative binding affinity(ARB) (H-2 D^d) | Normalized average relative binding affinity(ARB) (H-2 K^d) | Normalized average relative binding affinity(ARB) (H-2 K^k)
1 | XXXSXXXXX [3064.0076] | 0.76 | 0.26 | 1.0 | 0.48 | 1.0 | 0.78 | 0.090 | 0.92 | 0.44 | 0.14 | 0.74 | 1.0 | 0.83 | 0.58 | 0.28 | 0.28
2 | XXXTXXXXX [3064.0077] | 0.44 | 0.31 | 0.20 | 0.52 | 0.39 | 0.41 | 0.54 | 0.77 | 0.25 | 0.61 | 0.27 | 0.74 | 0.58 | 0.66 | 0.21 | 0.19
3 | XXXVXXXXX [3064.0078] | 0.22 | 0.27 | 0.15 | 0.47 | 0.52 | 0.64 | 0.17 | 0.67 | 0.70 | 1.00 | 0.33 | 0.53 | 0.87 | 0.48 | 0.19 | 0.49
4 | XXXWXXXXX [3064.0079] | 0.45 | 0.29 | 0.56 | 0.68 | 0.39 | 0.63 | 0.32 | 0.82 | 1.0 | 1.0 | 0.33 | 0.72 | 0.56 | 0.54 | 0.040 | 1.0
